{"source": "patent US9012492B2", "about": "“Apocynin-lipoic acid conjugates and uses thereof” (priority 2011, dated 2015)", "key": {"N27 neuronal cells": {"system": "N27 neuronal cells", "assay": "DNA fragmentation ELISA after hydrogen peroxide exposure of N27 neuronal cells", "format": "cell-based", "settings": "for DNA cell fragmentation: n = 4", "experimental": "Specifically, the effects of (Ia) on oxidative stress in N27 neuronal cells, a dopaminergic cell line were studied. […]\nThe cells were then lysed, and DNA fragmentation was determined by ELISA assay."}, "Sprague-Dawley rats": {"system": "Sprague-Dawley rats", "settings": "previous studies, cited from earlier work"}, "rat liver microsomes": {"system": "rat liver microsomes", "assay": "Metabolic stability using rat liver microsomes", "format": "in vitro ADME", "design": "half-life: dose or concentration left out as unconfirmed", "source_text": "(§1) Table 7 summarizes the experimental conditions used in the studies of the metabolic stability of the compound of Formula (Ia) using rat liver microsomes. Table 8 and FIG. 13 show the results from the studies of the metabolic stability of the compound of Formula (Ia) using rat liver microsomes. [table]"}, "[1]": {"assay": "Stability in sodium phosphate buffer (HPLC)", "format": "physicochemical", "settings": "for Half life: buffer; for half-life: buffer without microsomes and without NADPH", "experimental": "The stability of the compound of Formula (Ia) in a sodium phosphate buffer (50 mM, pH 7.4) was evaluated using HPLC. […] Area counts of apocynin and lipoid acid were found in 0 minute samples and were generally constant until the last time point measured (see: FIGS. 11-12 and Tables 5-6)."}, "[2]": {"system": "dog liver microsomes (DLM)", "assay": "Metabolic stability using dog liver microsomes", "format": "in vitro ADME", "source_text": "(§2) Table 9 summarizes the experimental conditions used in the studies of the metabolic stability of the compound of Formula (Ia) using dog liver microsomes and human liver microsomes."}, "[3]": {"system": "markers of oxidative stress (SOD1, SOD2, GSH, GSSG, H2O2, HNE-His adducts, DNA fragmentation)", "settings": "administered 30 min prior to I/R; same model, previously demonstrated; cited from earlier work"}, "[4]": {"system": "human liver microsomes (HLM)", "assay": "Metabolic stability using human liver microsomes", "format": "in vitro ADME", "source_text": "as §2"}, "[5]": {"assay": "Metabolic stability using rat liver microsomes", "format": "in vitro ADME", "design": "half-life: dose or concentration left out as unconfirmed", "settings": "rat, rat liver microsomes, pH 7.4", "source_text": "as §1"}, "[6]": {"assay": "Metabolic stability using human liver microsomes", "format": "in vitro ADME", "settings": "human", "source_text": "as §2"}, "[7]": {"assay": "Metabolic stability using dog liver microsomes", "format": "in vitro ADME", "settings": "dog, dog liver microsomes, pH 7.4; DLM control (without NADPH)", "source_text": "as §2"}, "[8]": {"settings": "matrix buffer (no microsomes, no NADPH), DLM/HLM study"}, "[9]": {"settings": "matrix buffer (no microsomes, no NADPH), rat liver microsome study"}}, "note": "Where two headings read alike, the source gives them in different places."}
{"molecule": "c1ccc2c(c1)[I+]c1ccccc1-2", "note": "[DPI, diphenyleneiodonium]", "values": [{"measurement": "DNA fragmentation induced by hydrogen peroxide reduced by", "setting": "N27 neuronal cells; pretreatment 10 μM", "value": 48, "unit": "%"}, {"measurement": "DNA cell fragmentation", "setting": "N27 neuronal cells; pretreatment 10 μM, then hydrogen peroxide (1 mM)", "value": "208 ± 38 percentage of control"}]}
{"molecule": "1,2-dithiolane-2-pentanoic acid [lipoic acid]", "values": [{"measurement": "neuroprotection when administered just prior to the beginning of reperfusion", "setting": "Sprague-Dawley rats; 5 mg/kg", "value": "did not result in significant neuroprotection"}, {"measurement": "most effective dose", "setting": "Sprague-Dawley rats; I/R model", "value": 5, "unit": "mg/kg"}, {"measurement": "CLintr (mL/min/g liver)", "setting": "rat liver microsomes; rat, microsomes", "value": "<0.6", "unit": "mL/min/g liver"}, {"measurement": "Half life", "setting": "rat liver microsomes; rat, microsomes", "value": ">30", "unit": "min"}, {"measurement": "CLintr (mL/min/g liver)", "setting": "[1]", "value": 0.9, "unit": "mL/min/g liver"}, {"measurement": "Half life", "setting": "[1]", "value": ">30", "unit": "min"}, {"measurement": "% Metabolism in 30 minutes", "setting": "[1]; [8]", "value": 0, "unit": "%"}, {"measurement": "% Metabolism in 30 minutes", "setting": "[1]; [9]", "value": 0, "unit": "%"}, {"measurement": "CLintr (mL/min/g liver)", "setting": "[1]; rat", "value": "<0.6", "unit": "mL/min/g liver"}, {"measurement": "Half life", "setting": "[1]; rat", "value": ">30", "unit": "min"}, {"measurement": "Half life", "setting": "[2]; dog, microsomes", "value": ">30", "unit": "min"}, {"measurement": "SOD2 activity", "setting": "[3]", "value": "increased SOD2 activity"}, {"measurement": "% Metabolism in 30 minutes", "setting": "[4]", "value": 0, "unit": "%"}, {"measurement": "CLintr (mL/min/g liver)", "setting": "[4]; human, microsomes", "value": "<0.6", "unit": "mL/min/g liver"}, {"measurement": "Half life", "setting": "[4]; human, microsomes", "value": ">30", "unit": "min"}]}
{"molecule": "OO", "note": "[Hydrogen Peroxide, hydrogen peroxide]", "values": [{"measurement": "DNA cell fragmentation", "setting": "N27 neuronal cells; hydrogen peroxide alone (6 hr)", "value": "428 ± 52 percentage of control"}]}
{"molecule": "O=C(O)Cc1ccccc1Nc1c(Cl)cccc1Cl", "note": "[diclofenac]", "values": [{"measurement": "half-life", "setting": "[5]; matrix RLM (positive control)", "value": 11, "unit": "min"}, {"measurement": "% Metabolism in 30 minutes", "setting": "rat liver microsomes; matrix RLM (positive control)", "value": 84, "unit": "%"}, {"measurement": "CLintr (mL/min/g liver)", "setting": "rat liver microsomes; matrix RLM (positive control)", "value": 6.4, "unit": "mL/min/g liver"}, {"measurement": "half-life", "setting": "[6]; microsomes, matrix HLM (positive control)", "value": 9, "unit": "min"}, {"measurement": "% Metabolism in 30 minutes", "setting": "[4]; matrix HLM (positive control)", "value": 92, "unit": "%"}, {"measurement": "CLintr (mL/min/g liver)", "setting": "[4]; matrix HLM (positive control)", "value": 8.4, "unit": "mL/min/g liver"}]}
{"molecule": "COc1cc(C(C)=O)ccc1O", "note": "[Apocynin, 4-hydroxy-3-methoxyacetophenone]", "values": [{"measurement": "half-life at 0.5 µM", "setting": "[5]; RLM, control (without NADPH)", "value": "> 30", "unit": "min"}, {"measurement": "% Metabolism in 30 minutes", "setting": "rat liver microsomes; RLM, control (without NADPH)", "value": 2, "unit": "%"}, {"measurement": "CLintr (mL/min/g liver)", "setting": "rat liver microsomes; RLM, control (without NADPH)", "value": "<0.6", "unit": "mL/min/g liver"}, {"measurement": "% Metabolism in 30 minutes", "setting": "rat liver microsomes; RLM, reaction (with NADPH)", "value": 0, "unit": "%"}, {"measurement": "CLintr (mL/min/g liver)", "setting": "rat liver microsomes; RLM, reaction (with NADPH)", "value": "<0.6", "unit": "mL/min/g liver"}, {"measurement": "Half life", "setting": "rat liver microsomes; RLM, reaction (with NADPH)", "value": ">30", "unit": "min"}, {"measurement": "DNA fragmentation induced by hydrogen peroxide reduced by", "setting": "N27 neuronal cells; pretreatment 100 μM", "value": 41, "unit": "%"}, {"measurement": "DNA cell fragmentation", "setting": "N27 neuronal cells; pretreatment 100 μM, then hydrogen peroxide (1 mM)", "value": "244 ± 32 percentage of control"}, {"measurement": "half-life", "setting": "[1]; [8]", "value": "> 30", "unit": "min"}, {"measurement": "half-life", "setting": "[1]; [9]", "value": "> 30", "unit": "min"}, {"measurement": "% Metabolism in 30 minutes", "setting": "[1]; [8]", "value": 1, "unit": "%"}, {"measurement": "CLintr (mL/min/g liver)", "setting": "[1]; [8]", "value": "<0.6", "unit": "mL/min/g liver"}, {"measurement": "% Metabolism in 30 minutes", "setting": "[1]; [9]", "value": 0, "unit": "%"}, {"measurement": "CLintr (mL/min/g liver)", "setting": "[1]; [9]", "value": "<0.6", "unit": "mL/min/g liver"}, {"measurement": "% Metabolism in 30 minutes", "setting": "[2]; DLM control (without NADPH)", "value": 0, "unit": "%"}, {"measurement": "CLintr (mL/min/g liver)", "setting": "[2]; DLM control (without NADPH)", "value": "<0.6", "unit": "mL/min/g liver"}, {"measurement": "% Metabolism in 30 minutes", "setting": "[2]; DLM reaction (with NADPH)", "value": 30, "unit": "%"}, {"measurement": "CLintr (mL/min/g liver)", "setting": "[2]; DLM reaction (with NADPH)", "value": 1.6, "unit": "mL/min/g liver"}, {"measurement": "Half life", "setting": "[2]; DLM reaction (with NADPH)", "value": ">30", "unit": "min"}, {"measurement": "half-life at 0.5 µM", "setting": "[7]", "value": "> 30", "unit": "min"}, {"measurement": "SOD2 activity", "setting": "[3]", "value": "ineffective"}, {"measurement": "half-life", "setting": "[6]; human liver microsomes, HLM control (without NADPH)", "value": "> 30", "unit": "min"}, {"measurement": "% Metabolism in 30 minutes", "setting": "[4]; HLM control (without NADPH)", "value": 0, "unit": "%"}, {"measurement": "CLintr (mL/min/g liver)", "setting": "[4]; HLM control (without NADPH)", "value": "<0.6", "unit": "mL/min/g liver"}, {"measurement": "% Metabolism in 30 minutes", "setting": "[4]; HLM reaction (with NADPH)", "value": 0, "unit": "%"}, {"measurement": "CLintr (mL/min/g liver)", "setting": "[4]; HLM reaction (with NADPH)", "value": "<0.6", "unit": "mL/min/g liver"}, {"measurement": "Half life", "setting": "[4]; HLM reaction (with NADPH)", "value": ">30", "unit": "min"}]}
